From patent US6472391B2, “Nitrogen-containing heterocyclic compounds” (Millennium Pharmaceuticals, Inc., priority 1996, dated 2002)
Each block holds one compound with its values, some of them ahead of it.

Compound: O=C(Nc1ccc(Oc2ccccc2)cc1)N1CCN(c2ncnc3cc4ccccc4cc23)CC1 [Compound 363, 4-(4-Benzo[g]quinazolinyl)-N-(4-phenoxyphenyl)-1-piperazinecarboxamide]
melting point: 105 to 108 °C

Compound: S=C(NCc1ccccc1)N1CCN(c2ncnc3cc4ccccc4cc23)CC1 [Compound 365, 4-(4-Benzo[g]quinazolinyl)-N-benzyl-1-piperazinethiocarboxamide]
melting point: 187 to 188 °C

Compound: O=C(Nc1ccc(Oc2ccccc2)cc1)N1CCN(c2ncnc3cc4c(cc23)OCO4)CC1 [Compound 367, 4-(6,7-Methylenedioxy-4-quinazolinyl)-N-(4-phenoxyphenyl)-1-piperazinecarboxamide]
melting point: 206 to 207 °C

Compound: O=C(Nc1ccc([N+](=O)[O-])cc1)N1CCN(c2ncnc3cc4c(cc23)OCO4)CC1 [Compound 368, 4-(6,7-Methylenedioxy-4-quinazolinyl)-N-(4-nitrophenyl)-1-piperazinecarboxamide]
melting point: 247 to 250 °C

Compound: N#Cc1ccc(NC(=O)N2CCN(c3ncnc4cc5c(cc34)OCO5)CC2)cc1 [Compound 369, N-(4-Cyanophenyl)-4-(6,7-methylenedioxy-4-quinazolinyl)-1-piperazinecarboxamide]
melting point: 220 to 222 °C

Compound: S=C(NCc1ccccc1)N1CCN(c2ncnc3cc4c(cc23)OCCO4)CC1 [Compound 374, N-Benzyl-4-(6,7-ethylenedioxy-4-quinazolinyl)-1-piperazinethiocarboxamide]
melting point: 103 to 105 °C

Compound: CC(C)c1ccc(NC(=O)N2CCN(c3ncnc4c(Cl)cc(Cl)cc34)CC2)cc1 [Compound 376, 4-(6,8-Dichloro-4-quinazolinyl)-N-(4-isopropylphenyl)-1-piperazinecarboxamide]
melting point: 234 to 236 °C

Compound: O=C(Nc1ccc(Oc2ccccc2)cc1)N1CCN(c2ncnc3c(Cl)cc(Cl)cc23)CC1 [Compound 377, 4-(6,8-Dichloro-4-quinazolinyl)-N-(4-phenoxyphenyl)-1-piperazinecarboxamide]
melting point: 195 to 196 °C

Compound: CC(C)c1ccc(NC(=O)N2CCN(c3ncnc4c(I)cc(I)cc34)CC2)cc1 [Compound 379, 4-(6,8-Diiodo-4-quinazolinyl)-N-(4-isopropylphenyl)-1-piperazinecarboxamide]
melting point: 267 to 269 °C

Results, then the compound that gave them:

melting point: 272 to 275 °C
Compound: O=C(Nc1ccc([N+](=O)[O-])cc1)N1CCN(c2ncnc3cc4ccccc4cc23)CC1 [Compound 364, 4-(4-Benzo[g]quinazolinyl)-N-(4-nitrophenyl)-1-piperazinecarboxamide]

melting point: 176 to 177 °C
Compound: S=C(NCc1ccccc1)N1CCN(c2ncnc3cc4c(cc23)OCO4)CC1 [Compound 370, N-Benzyl-4-(6,7-methylenedioxy-4-quinazolinyl)-1-piperazinethiocarboxamide]

melting point: 167 to 168 °C
Compound: S=C(NCc1cccnc1)N1CCN(c2ncnc3cc4c(cc23)OCO4)CC1 [Compound 371, 4-(6,7-Methylenedioxy-4-quinazolinyl)-N-(3-picolyl)-1-piperazinethiocarboxamide]

melting point: 227 to 228 °C
Compound: O=C(Nc1ccc(Oc2ccccc2)cc1)N1CCN(c2ncnc3cc4c(cc23)OCCO4)CC1 [Compound 372, 4-(6,7-Ethylenedioxy-4-quinazolinyl)-N-(4-phenoxyphenyl)-1-piperazinecarboxamide]

melting point: 246 to 247 °C
Compound: N#Cc1ccc(NC(=O)N2CCN(c3ncnc4cc5c(cc34)OCCO5)CC2)cc1 [Compound 373, N-(4-Cyanophenyl)-4-(6,7-ethylenedioxy-4-quinazolinyl)-1-piperazinecarboxamide]

melting point: 110 to 113 °C
Compound: S=C(NCc1cccnc1)N1CCN(c2ncnc3cc4c(cc23)OCCO4)CC1 [Compound 375, 4-(6,7-Ethylenedioxy-4-quinazolinyl)-N-(3-picolyl)-1-piperazinethiocarboxamide]

melting point: 187 to 188 °C
Compound: CC(=O)c1ccc(NC(=O)N2CCN(c3ncnc4c(Cl)cc(Cl)cc34)CC2)cc1 [Compound 378, N-(4-Acetylphenyl)-4-(6,8-dichloro-4-quinazolinyl)-1-piperazinecarboxamide]
